Each structure is given as a SMILES string.

A short description of data set [1]: RP, Waters ACQUITY UPLC HSS C18, 100 × 2.1 mm, 1.7 µm, 40 °C, 0.35 mL/min, estimated dead time 0.63 min; A: water + 0.1% formic acid; B: methanol + 0.1% formic acid; gradient (min/%B) 0/0.5 4/70 4.5/98 5.4/98. The note with it: stereoisomer not certain.
Data set [2] in a line: Waters ACQUITY UPLC BEH C18, 100 × 2.1 mm, 1.7 µm, 40 °C, 0.28 mL/min, estimated dead time 0.63 min; A: water + 6.5 mM ammonium hydroxide; B: methanol + 6.5 mM ammonium hydroxide; gradient (min/%B) 0/0.5 4/70 4.5/98 5.4/98. The note with it: stereoisomer not certain.

`O=C(O)c1cccc(O)c1`: the LC retention time in data set [1] is 3.47 min; in data set [2], 0.886 min. For `OC1C2COC(O2)C(O)C1O` (configuration not stated), in that order: 0.85 min and 0.853 min. In the case of `NC1(C(=O)O)CC1`, the LC retention time in data set [1] is 0.779 min; in data set [2] it was 0.778 min. For `NC(C(=O)O)c1ccc(O)cc1` (configuration not stated), in that order: 0.808 min and 0.818 min. For `O=c1ccn(C2CC(O)C(COP(=O)(O)O)O2)c(=O)[nH]1` (configuration not stated), in that order: 1.35 min and 0.813 min. Regarding `Nc1ncnc2c1ncn2C1OC(CO)C(O)C1O` (configuration not stated), the LC retention time in data set [1] was 1.86 min; in data set [2], 2.48 min. For `CC(C)(C)NCC(O)c1ccc(O)c(CO)c1` (configuration not stated), in that order: 2.34 min and 3.38 min. Regarding `CCCCCC(=O)NCC(=O)O`, the figures for the LC retention time in data set [1] and in data set [2] were 4.08 min and 3.29 min, respectively. For `NCCCCC(NC(CCc1ccccc1)C(=O)O)C(=O)N1CCCC1C(=O)O` (configuration not stated), in that order: 3.22 min and 2.96 min. For `Oc1ccc(O)cc1`, in that order: 2.83 min and 1.95 min. Consider `COc1ccc(O)c(C(=O)O)c1`, for which the LC retention time was 4.48 min in data set [1] and 2.84 min in data set [2].

With `Nc1cc(O)cc(C(=O)O)c1`, the LC retention time was 1.32 min in data set [1] and 0.812 min in data set [2]. Turning to `CN(CC(=O)O)C(=N)N`, the LC retention time in data set [1] was 0.82 min; in data set [2], 0.86 min. Turning to `CC(=O)NC(CC(C)C)C(=O)O` (configuration not stated), the LC retention time is 3.9 min in data set [1] and 2.73 min in data set [2]. Turning to `CNCC(O)c1ccc(O)cc1` (configuration not stated), the LC retention time in data set [1] was 0.855 min; in data set [2], 1.96 min.

Consider `CCCCCCCC(=O)NCC(=O)O`, for which the results for the LC retention time in data set [1] and in data set [2] were 5.22 min and 4.67 min, respectively. For `Cn1c(=O)c2[nH]cnc2n(C)c1=O`, in that order: 2.9 min and 2.75 min. Consider `Cc1cn(C2CC(O)C(CO)O2)c(=O)[nH]c1=O` (configuration not stated), for which the LC retention time in data set [1] was 2.29 min; in data set [2] it was 2.34 min. For `CCCCCCC(O)C(=O)O` (configuration not stated), the LC retention time in data set [1] is 5.18 min; in data set [2], 4.12 min. For the compound `COC(=O)Cc1c[nH]c2ccccc12`, the LC retention time in data set [1] is 4.85 min; in data set [2] it was 5.01 min. For `CC(=O)NC1C(O)OC(CO)C(O)C1OC(C)C(=O)O` (configuration not stated), in that order: 1.91 min and 0.854 min. For `O=C(O)CN(CCO)CCO`, in that order: 0.765 min and 0.874 min. For `O=c1[nH]c(=O)c2ncn(C3OC(CO)C(O)C3O)c2[nH]1` (configuration not stated), in that order: 2.09 min and 1.11 min. Consider `OCC1OC(OCC2OC(O)C(O)C(O)C2O)C(O)C(O)C1O` (configuration not stated), for which the LC retention time is 0.804 min in data set [1] and 0.831 min in data set [2]. For `CC1=CC(=O)NS(=O)(=O)O1`, in that order: 2.12 min and 1.78 min. Consider `O=C1OC(CO)C(O)C(O)C1O` (configuration not stated), for which the LC retention time in data set [1] was 0.795 min; in data set [2], 0.906 min. For the compound `O=C1CC(C(=O)O)NC(=O)N1` (configuration not stated), the LC retention time in data set [1] was 0.995 min; in data set [2], 0.767 min. As for `O=C(O)c1cc(=O)c2cccc(O)c2[nH]1`, the LC retention time in data set [1] is 3.04 min; in data set [2], 1.67 min. With `O=C(O)Cc1c[nH]c2ccc(O)cc12`, the figures for the LC retention time in data set [1] and in data set [2] were 2.92 min and 1.72 min, respectively. Regarding `NC(CC(=O)O)C(=O)NC(Cc1ccccc1)C(=O)O` (configuration not stated), the LC retention time in data set [1] was 2.95 min; in data set [2], 1.73 min. Consider `CC(=O)OCC(N)C(=O)O` (configuration not stated), for which the LC retention time in data set [1] is 0.854 min; in data set [2], 0.876 min. For `O=Cc1ccc(O)cc1`, in that order: 3.39 min and 2.36 min. As to `O=C(O)C1CCCCN1` (configuration not stated), the LC retention time is 1.15 min in data set [1] and 1.14 min in data set [2].

Turning to `O=c1cc[nH]c(=O)[nH]1`, the LC retention time in data set [1] is 1.18 min; in data set [2], 1.19 min. For `Nc1nc2c(ncn2C2OC3COP(=O)(O)OC3C2O)c(=O)[nH]1` (configuration not stated), in that order: 1.99 min and 1.87 min.

Regarding `NCCCCCCCC(=O)O`, the LC retention time in data set [1] was 2.59 min; in data set [2] it was 1.95 min. For `O=C(O)c1ccc(O)c(O)c1O`, in that order: 2.59 min and 0.832 min. For `Nc1ncnc2nc[nH]c12`, in that order: 1.05 min and 1.99 min.

Consider `O=c1[nH]cnc2c1ncn2C1OC(CO)C(O)C1O` (configuration not stated), for which the LC retention time in data set [1] is 1.92 min; in data set [2], 1.9 min. For `NC(N)=NCCCC(=O)O`, in that order: 1.11 min and 0.91 min. As to `OCC1OC(OC2C(CO)OC(O)(CO)C2O)C(O)C(O)C1O` (configuration not stated), the LC retention time was 0.799 min in data set [1] and 0.859 min in data set [2]. For `Nc1nc2ncc(CNc3ccc(C(=O)NC(CCC(=O)O)C(=O)O)cc3)nc2c(=O)[nH]1` (configuration not stated), in that order: 3.01 min and 0.847 min.

As to `CC12CCC(=O)C=C1CCC1C2C(O)CC2(C)C1CCC2(O)C(=O)CO` (configuration not stated), the LC retention time in data set [1] is 5.02 min; in data set [2], 5.22 min. For `O=C(O)Cc1ccccc1`, in that order: 2.87 min and 1.75 min. For `O=C(O)C(O)c1ccc(O)cc1` (configuration not stated), in that order: 3.64 min and 0.823 min.

For `Nc1ccnc(=O)[nH]1`, the LC retention time in data set [1] is 0.783 min; in data set [2], 1 min.

Regarding `O=C(O)c1ccc(O)cc1`, the LC retention time in data set [1] was 3.1 min; in data set [2] it was 0.892 min.

With `Cc1ncc(CO)c(CO)c1O`, the results for the LC retention time in data set [1] and in data set [2] were 1.54 min and 1.94 min, respectively.

Turning to `O=C(O)c1ccncc1`, the LC retention time in data set [1] was 0.877 min; in data set [2], 0.867 min.

Regarding `CCCCCCSCC(NC(=O)CCC(N)C(=O)O)C(=O)NCC(=O)O` (configuration not stated), the figures for the LC retention time in data set [1] and in data set [2] were 4.88 min and 4.57 min, respectively.

Take `Oc1ccc(C=Cc2cc(O)cc(O)c2)cc1`: the LC retention time in data set [1] was 4.15 min; in data set [2] it was 4.23 min. For the compound `CN(C)CC(=O)O`, the values for the LC retention time in data set [1] and in data set [2] were 0.77 min and 0.821 min, respectively. As to `CC(=O)Nc1ccc(O)cc1`, the LC retention time in data set [1] was 2.51 min; in data set [2] it was 2.58 min. Consider `O=C(O)c1ccccn1`, for which the LC retention time in data set [1] was 1.14 min; in data set [2] it was 1.2 min. For the compound `NC(=O)NCCCCC(N)C(=O)O` (configuration not stated), the LC retention time was 0.857 min in data set [1] and 0.853 min in data set [2]. For `Nc1ccn(C2OC(CO)C3OP(=O)(O)OC32)c(=O)n1` (configuration not stated), in that order: 0.912 min and 0.926 min. Consider `CCC1(C)CC(=O)NC1=O` (configuration not stated), for which the LC retention time was 3.39 min in data set [1] and 3.44 min in data set [2]. For `Cc1cn(C2CC(O)C(COP(=O)(O)O)O2)c(=O)[nH]c1=O` (configuration not stated), in that order: 1.76 min and 0.908 min. As for `O=C(O)c1ccoc1`, the figures for the LC retention time in data set [1] and in data set [2] were 3.35 min and 0.886 min, respectively. For `O=C(NO)c1ccccc1O`, the LC retention time in data set [1] is 3.04 min; in data set [2] it was 2.15 min.

For the compound `Nc1nc2c(ncn2C2OC(CO)C(O)C2O)c(=O)[nH]1` (configuration not stated), the LC retention time in data set [1] is 1.92 min; in data set [2], 1.98 min. For `O=C(O)CNC(=O)C=Cc1ccccc1`, in that order: 4.18 min and 3.49 min. For `OCC1OC(OCC2OC(OC3(CO)OC(CO)C(O)C3O)C(O)C(O)C2O)C(O)C(O)C1O` (configuration not stated), the LC retention time is 0.835 min in data set [1] and 1.05 min in data set [2].

Regarding `O=[N+]([O-])c1ccc(O)cc1`, the results for the LC retention time in data set [1] and in data set [2] were 4.18 min and 2.41 min, respectively. For `Cc1cnc(=O)[nH]c1N`, in that order: 0.911 min and 1.62 min. Take `CNCCc1ccc(O)cc1`: the LC retention time was 1.79 min in data set [1] and 2.43 min in data set [2]. In the case of `NC(=O)Cc1c[nH]c2ccccc12`, the LC retention time is 3.52 min in data set [1] and 3.63 min in data set [2]. `COc1ccc(OC)c(C(O)C(C)N)c1` (configuration not stated): the LC retention time in data set [1] was 3.14 min; in data set [2], 3.99 min. As to `CC1(C)SC2C(NC(=O)C(N)c3ccccc3)C(=O)N2C1C(=O)O` (configuration not stated), the LC retention time in data set [1] is 3.45 min; in data set [2], 3.72 min. As to `Cc1ccc(S(=O)(=O)O)cc1`, the LC retention time in data set [1] was 3 min; in data set [2], 2.67 min.

With `NCCCC(=O)O`, the LC retention time in data set [1] is 0.761 min; in data set [2], 0.769 min. For the compound `O=C(O)CCCCCCCCCO`, the LC retention time was 5.06 min in data set [1] and 3.96 min in data set [2]. For `Nc1ccc(C(=O)O)cc1`, in that order: 2.41 min and 0.852 min. As to `OCC1OC(OC2C(CO)OC(OC3C(CO)OC(O)C(O)C3O)C(O)C2O)C(O)C(O)C1O` (configuration not stated), the results for the LC retention time in data set [1] and in data set [2] were 0.847 min and 0.851 min, respectively. In the case of `CC([NH3+])C(=O)NCC(=O)[O-]` (configuration not stated), in data set [2], the LC retention time is 2.68 min. On the same count and under the same terms, under `CC(=O)NC(CCC(N)=O)C(=O)O` (configuration not stated) stands 0.835 min; under `CC(C)CCC(=O)O`, 3.06 min. On the same count and under the same terms, the same measure for `O=C(O)CCc1ccccc1O`: 2.93 min.

Source of the values: the RepoRT retention time repository (doi:10.1038/s41586-021-03707-9).
